Reference: paper PMC10046377, “Inhibitors of the Oncogenic PA2G4-MYCN Protein-Protein Interface” (Cancers, 2023)

What was measured:
[1] = test system: SHEP MYCN3 cells; test: Alamar Blue viability, SHEP MYCN3 cells with Dox-inducible MYCN induction; assay type: cell-based, human; conditions: Dox-induced MYCN expression, 72 h treatment, compared with DMSO treated controls and WS6
Text: The MYCN amplified neuroblastoma cell line SK-N-BE(2)-C was kindly provided by Professor June Biedler (Memorial Sloan Kettering Cancer Centre, New York, NY, USA), and Kelly was obtained from European Collection of Cell Cultures. The two normal lung fibroblast cell lines (MRC-5 and WI-38) were purchased from ATCC. SK-N-BE(2)-C shMYCN#2 doxycycline-inducible cell and Kelly shMYCN#2 doxycycline-inducible cell were custom-made by GenScript (Piscataway, NJ, USA). SK-N-BE(2)-C, SK-N-BE(2)-C shMYCN#2, and SHEP MYCN3 doxycycline-inducible cells were maintained in Dulbecco’s modified Eagle’s medium (DMEM) (Invitrogen, Life Technologies, Waltham, MA, USA) with 10% foetal calf serum (FCS). […]
(§1) Cell viability was determined by the Alamar Blue assay (75 mg resazurin, 12.5 mg methylene blue, 164.5 mg potassium hexacyanoferrate (III), 211 mg potassium hexacyanoferrate (II) trihydrate in 500 mL of phosphate buffered saline). After 6 h incubation with Alamar Blue, the change of fluorescence was measured by Victor 3 multilabel Plate Reader (Perkin Elmer Australia, Melburne, Australia) at an excitation wavelength of 560 nm and an emission wavelength of 590 nm.
Next, we examined whether #5333 and #5338 treatment for 48 h affected the levels of WS6 target proteins, PA2G4, and MYCN in neuroblastoma cells. […] Cell viability was measured following #5333 and #5338 treatments for 48–72 h. […]

[2] = test system: SK-N-BE(2)-C cells; test: Colony formation assay, SK-N-BE(2)-C; assay type: cell-based, human; conditions: increasing concentrations, 2 weeks
Description: (§2) A total of 250 SK-N-BE(2)-C and 500 Kelly cells were seeded in 6-well plates and treated with #5333 and #5338 24 h after seeding. Once colonies had formed (14 days for Kelly, 10 days for SK-N-BE(2)-C), cells were fixed and stained with 0.5% crystal violet in 50% methanol and washed twice to remove the unincorporated stain. The photos of colonies were taken by ChemiDoc MP Imaging System (Bio-Rad, South Granville, NSW, Australia). Stained colonies were counted, and colony size was measured using Image J software.
(§3) We treated human neuroblastoma tumour cell lines with high MYCN and PA2G4 expression (Kelly and SK-N-BE(2)-C), using increasing concentrations of #5333 or #5338, and measured the ability of cells to proliferate and form colonies in vitro over 2 weeks. […] Next, we evaluated cell replication using the BrdU uptake assay in response to 30 μM drug treatment for 48 h (Figure 2C).

[3] = test system: Kelly shMYCN cells; test: Alamar Blue viability, Dox-inducible Kelly shMYCN cells; assay type: cell-based; conditions: Homo sapiens, 72 h, 72 h treatment
Text: (§4) The MYCN amplified neuroblastoma cell line SK-N-BE(2)-C was kindly provided by Professor June Biedler (Memorial Sloan Kettering Cancer Centre, New York, NY, USA), and Kelly was obtained from European Collection of Cell Cultures. The two normal lung fibroblast cell lines (MRC-5 and WI-38) were purchased from ATCC. SK-N-BE(2)-C shMYCN#2 doxycycline-inducible cell and Kelly shMYCN#2 doxycycline-inducible cell were custom-made by GenScript (Piscataway, NJ, USA). SK-N-BE(2)-C, SK-N-BE(2)-C shMYCN#2, and SHEP MYCN3 doxycycline-inducible cells were maintained in Dulbecco’s modified Eagle’s medium (DMEM) (Invitrogen, Life Technologies, Waltham, MA, USA) with 10% foetal calf serum (FCS). Kelly and Kelly shMYCN#2 doxycycline-inducible cell were cultured in Roswell Park Memorial Institute (RPMI) 1640 (Invitrogen, Life Technologies) with 10% FCS. MRC-5 and WI-38 were cultured in Alpha-MEM media (Invitrogen, Life Technologies) with 10% FCS. All cells were not cultured for more than 2 months. All used cell lines were authenticated by Cell Bank Australia (Westmead, NSW, Australia) as being free from mycoplasma, and cultured at 37 °C and 5% CO2 in a humidifier incubator.
as §1
(§5) Next, we examined whether #5333 and #5338 treatment for 48 h affected the levels of WS6 target proteins, PA2G4, and MYCN in neuroblastoma cells. […] To determine the specificity of #5333 and #5338 for MYCN, we used two different doxycycline (Dox)-inducible neuroblastoma cell systems for repression of MYCN expression: shMYCN SK-N-BE(2)-C (MYCN-amplified) and shMYCN Kelly (MYCN-amplified) cell lines. Cell viability was measured following #5333 and #5338 treatments for 48–72 h. […] In addition, the specificity and efficacy of #5333 and #5338 were also tested in MYCN non-amplified SHEP MYCN3 cell lines with Dox-inducible MYCN induction. Cell viability was measured following #5333, #5338, or WS6 treatments for 72 h.
(§6) Figure 3 Compounds #5333 and #5338 functionally interact with MYCN and PA2G4 in neuroblastoma cells. (A) Western blot showing a decrease in protein expression due to #5333 or #5338 drug treatment. (B) Alamar Blue assays comparing cell viability of SK-N-BE(2)-C after Doxycycline (Dox)-inducible MYCN knockdown, followed by 72 h treatment with #5333 or #5338. […]

[4] = test system: SK-N-BE(2)-C shMYCN cells; test: Alamar Blue viability, Dox-inducible SK-N-BE(2)-C shMYCN cells; assay type: cell-based; conditions: Homo sapiens, 72 h, 72 h treatment
Text: as §4, §1, §5, §6

[5] = test system: neuroblastoma cells; test: Annexin V/7-AAD flow cytometry apoptosis assay; assay type: cell-based, human; conditions: 48 h treatment
Description: Neuroblastoma cell lines were seeded 24 h before treating with #5333 or #5338 for 48 h. The apoptotic and necrotic effects of the #5333 and #5338 treatment were determined by staining the cells with Annexin V PE/7-AAD using the Annexin V: PE Apoptosis Detection Kit (BD Biosciences, North Ryde, NSW, Australia), according to the manufacturer’s instruction. Stained cells were measured by flow cytometry using the BD LSRFortessa (BD Biosciences, NSW, Australia) and the data was analysed using the FlowJo software.
To determine if the drug effects led to apoptosis, we stained cells with annexin-V/7-AAD, a marker of early and late apoptotic events (Figure 2D). […] To confirm the apoptotic status of the cells, protein expression of key apoptotic markers PARP/Cleaved PARP, Caspase 3/Cleaved caspase 3, BCL2, and Bax was measured (Figure 2E).

[6] = test system: Kelly cells; test: Colony formation assay, Kelly; assay type: cell-based, human; conditions: increasing concentrations, 2 weeks
Description: as §2, §3

[7] = Dox (2 μg/ml) +, MYCN - (knockdown)

Row | Structure (SMILES) | change of IC50 on MYCN induction, SHEP MYCN3 [1] | colony number and size, SK-N-BE(2)-C [2] | IC50 [3, 7] | IC50 ([3]; Dox (2 μg/ml) -, MYCN +) | IC50 [4, 7] | IC50 ([4]; Dox (2 μg/ml) -, MYCN +) | apoptosis (annexin-V/7-AAD) [5] | colony number and size, Kelly [6]
1 | Cc1cccc(Oc2cc(N3CCC(C(=O)NCc4cccc(Br)c4)CC3)ncn2)c1C [#5333] | significant decrease in IC50 | decreased both the number and size of the colonies | 52.8 µM | 22.4 µM | 46.6 µM | 25.2 µM | caused similar levels of apoptosis | decreased both the number and size of the colonies
2 | Cc1cccc(Oc2cc(N3CCC(C(=O)N[C@@H](C)CCc4ccccc4)CC3)ncn2)c1C [#5338] | significant decrease in IC50 | decreased both the number and size of the colonies | 31.5 µM | 16 µM | 32.3 µM | 24.1 µM | caused similar levels of apoptosis | decreased both the number and size of the colonies
